Tests used:
Test in all cases: Bliss interaction score (quartile over a dose matrix) (fitness difference); higher = more antagonism (negative = synergy)
S. pneumoniae D39V = tested on: S. pneumoniae D39V
Outline: (§1)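 The Bliss score subtracts expected fitness, the product of the single-drug fitness values, from observed fitness. Fitness is plate-normalised OD595 at entry into stationary phase, relative to the robust no-drug mean and capped at 1, with single-drug fitness inferred from combinations. Summaries are quartiles over technical, biological and donor/recipient replicates.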

S. aureus DSM 20231 = tested on: S. aureus DSM 20231
Outline: as §1

B. subtilis 168 = tested on: B. subtilis 168
Outline: as §1

S. aureus Newman = tested on: S. aureus Newman
Outline: as §1
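Further: first quartile when negative (synergy) and third quartile when positive (antagonism).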

SMILES	Bliss interaction score (S. pneumoniae D39V; main component drawn)	Bliss interaction score (S. aureus DSM 20231; main component drawn)	Bliss interaction score (B. subtilis 168; main component drawn)	Bliss interaction score (S. aureus Newman; main component drawn)	Bliss interaction score (S. pneumoniae D39V)	Bliss interaction score (S. aureus DSM 20231)	Bliss interaction score (B. subtilis 168)	Bliss interaction score (S. aureus Newman)
O=C(O)[C@H]1/C(=C/CO)O[C@@H]2CC(=O)N21 [Clavulanic] + CCCCCCCCCC(=O)N[C@@H]1[C@H]([C@@H]([C@H](O[C@H]1OC2=C3C=C4C=C2OC5=C(C=C(C=C5)[C@H]([C@H]6C(=O)N[C@@H](C7=C(C(=CC(=C7)O)OC8[C@H]([C@H]([C@@H]([C@H](O8)CO)O)O)O)C9=C(C=CC(=C9)[C@H](C(=O)N6)NC(=O)[C@@H]4NC(=O)[C@@H]1C2=CC(=CC(=C2)OC2=C(C=CC(=C2)[C@H](C(=O)N[C@H](CC2=CC(=C(O3)C=C2)Cl)C(=O)N1)N)O)O)O)C(=O)O)O[C@H]1[C@@H]([C@H]([C@@H]([C@H](O1)CO)O)O)NC(=O)C)Cl)CO)O)O [Teicoplanin]	-0.0601	0.119	-0.178	-0.059	–	–	–	–
O=C(O)[C@H]1/C(=C/CO)O[C@@H]2CC(=O)N21 [Clavulanic] + CCC[C@@H]1C[C@@H](C(=O)N[C@@H]([C@H]2O[C@H](SC)[C@H](O)[C@@H](O)[C@H]2O)[C@@H](C)O)N(C)C1 [Lincomycin]	–	–	–	–	0.0627	-0.194	-0.0568	0.132
O=C(O)[C@H]1/C(=C/CO)O[C@@H]2CC(=O)N21 [Clavulanic] + CCC[C@@H]1C[C@@H](C(=O)N[C@@H]([C@H]2O[C@H](SC)[C@H](O)[C@@H](O)[C@H]2O)[C@H](C)Cl)N(C)C1 [Clindamycin]	–	–	–	–	-0.0802	-0.148	-0.0975	0.188
O=C(O)[C@H]1/C(=C/CO)O[C@@H]2CC(=O)N21 [Clavulanic] + CCN(CC)CCOC(=O)c1ccc(N)cc1 [Procaine]	–	–	–	–	0.0863	0.0977	-0.0363	-0.0729
O=C(O)[C@H]1/C(=C/CO)O[C@@H]2CC(=O)N21 [Clavulanic] + CC[C@H]1OC(=O)[C@H](C)C(=O)[C@H](C)[C@@H](O[C@@H]2O[C@H](C)C[C@H](N(C)C)[C@H]2O)[C@](C)(OC)C[C@@H](C)C(=O)[C@H](C)[C@H]2N(CCCCn3cnc(-c4cccnc4)c3)C(=O)O[C@]12C [Telithromycin]	–	–	–	–	-0.0431	-0.0742	0.0437	0.122
O=C(O)[C@H]1/C(=C/CO)O[C@@H]2CC(=O)N21 [Clavulanic] + CC[C@H]1OC(=O)[C@H](C)[C@@H](O[C@H]2C[C@@](C)(OC)[C@@H](O)[C@H](C)O2)[C@H](C)[C@@H](O[C@@H]2O[C@H](C)C[C@H](N(C)C)[C@H]2O)[C@](C)(O)C[C@@H](C)C(=O)[C@H](C)[C@@H](O)[C@]1(C)O [Erythromycin]	–	–	–	–	-0.0371	-0.151	0.0508	0.237
O=C(O)[C@H]1/C(=C/CO)O[C@@H]2CC(=O)N21 [Clavulanic] + CN1C2=CC=CC=C2N=C3C1=CC=CC3=O [Pyocyanin]	–	–	–	–	0.0705	-0.0632	0.0338	0.0849
O=C(O)[C@H]1/C(=C/CO)O[C@@H]2CC(=O)N21 [Clavulanic] + CN(C)C(=O)C(CCN1CCC(O)(c2ccc(Cl)cc2)CC1)(c1ccccc1)c1ccccc1 [Loperamide]	–	–	–	–	0.0637	-0.361	0.389	0.209
O=C(O)[C@H]1/C(=C/CO)O[C@@H]2CC(=O)N21 [Clavulanic] + CN(C)[C@@H]1C(O)=C(C(N)=O)C(=O)[C@@]2(O)C(O)=C3C(=O)c4c(O)ccc(Cl)c4[C@@](C)(O)[C@H]3C[C@@H]12 [Clortetracycline]	–	–	–	–	-0.0427	-0.24	0.0785	0.161
O=C(O)[C@H]1/C(=C/CO)O[C@@H]2CC(=O)N21 [Clavulanic] + CN(C)c1cc(NC(=O)CNC(C)(C)C)c(O)c2c1C[C@H]1C[C@H]3[C@H](N(C)C)C(O)=C(C(N)=O)C(=O)[C@@]3(O)C(O)=C1C2=O [Tigecycline]	–	–	–	–	0.0386	0.0703	0.0342	-0.0659
O=C(O)[C@H]1/C(=C/CO)O[C@@H]2CC(=O)N21 [Clavulanic] + CN(N=O)C(=O)N[C@@H](C=O)[C@@H](O)[C@H](O)[C@H](O)CO [Streptozotocin]	–	–	–	–	0.059	-0.0853	-0.0541	0.197
O=C(O)[C@H]1/C(=C/CO)O[C@@H]2CC(=O)N21 [Clavulanic] + CN[C@@H]1[C@H](O)[C@H](NC)[C@H]2O[C@@]3(O)C(=O)C[C@@H](C)O[C@H]3O[C@@H]2[C@H]1O [Spectinomycin]	–	–	–	–	-0.0465	0.137	0.0479	0.104
O=C(O)[C@H]1/C(=C/CO)O[C@@H]2CC(=O)N21 [Clavulanic] + CN[C@H](CC(C)C)C(=O)N[C@H]1C(=O)N[C@@H](CC(N)=O)C(=O)N[C@H]2C(=O)N[C@H]3C(=O)N[C@H](C(=O)N[C@H](C(=O)O)c4cc(O)cc(O)c4-c4cc3ccc4O)[C@H](O)c3ccc(c(Cl)c3)Oc3cc2cc(c3O[C@@H]2O[C@H](CO)[C@@H](O)[C@H](O)[C@H]2O[C@H]2C[C@](C)(N)[C@H](O)[C@H](C)O2)Oc2ccc(cc2Cl)[C@H]1O [Vancomycin]	–	–	–	–	-0.0704	0.0812	-0.136	-0.0409
O=C(O)[C@H]1/C(=C/CO)O[C@@H]2CC(=O)N21 [Clavulanic] + CN[C@H](CC(C)C)C(=O)N[C@H]1C(=O)N[C@@H](CC(N)=O)C(=O)N[C@H]2C(=O)N[C@H]3C(=O)N[C@H](C(=O)N[C@H](C(=O)O)c4cc(O)cc(O)c4-c4cc3ccc4O)[C@H](O[C@H]3C[C@](C)(N)[C@@H](O)[C@H](C)O3)c3ccc(c(Cl)c3)Oc3cc2cc(c3O[C@@H]2O[C@H](CO)[C@@H](O)[C@H](O)[C@H]2O[C@H]2C[C@](C)(NCc3ccc(-c4ccc(Cl)cc4)cc3)[C@@H](O)[C@H](C)O2)Oc2ccc(cc2Cl)[C@H]1O [Oritavancin]	–	–	–	–	0.0545	0.0726	-0.0388	0.197
O=C(O)[C@H]1/C(=C/CO)O[C@@H]2CC(=O)N21 [Clavulanic] + CO[C@@H]1[C@@H](OC(N)=O)[C@@H](O)[C@H](Oc2ccc3c(O)c(NC(=O)c4ccc(O)c(CC=C(C)C)c4)c(=O)oc3c2C)OC1(C)C [Novobiocin]	–	–	–	–	-0.0784	0.116	0.0384	0.177
O=C(O)[C@H]1/C(=C/CO)O[C@@H]2CC(=O)N21 [Clavulanic] + CO[C@@]12[C@H](COC(N)=O)C3=C(C(=O)C(C)=C(N)C3=O)N1C[C@@H]1N[C@@H]12 [MitomycinC]	–	–	–	–	-0.0718	-0.0996	-0.113	0.129
O=C(O)[C@H]1/C(=C/CO)O[C@@H]2CC(=O)N21 [Clavulanic] + CO[C@H]1/C=C/O[C@@]2(C)Oc3c(C)c(O)c4c(O)c(c(/C=N/N5CCN(C)CC5)c(O)c4c3C2=O)NC(=O)/C(C)=C\C=C\[C@H](C)[C@H](O)[C@@H](C)[C@@H](O)[C@@H](C)[C@H](OC(C)=O)[C@@H]1C [Rifampicin]	–	–	–	–	-0.0766	0.112	0.0612	-0.0368
O=C(O)[C@H]1/C(=C/CO)O[C@@H]2CC(=O)N21 [Clavulanic] + COc1c(N2C[C@@H]3CCCN[C@@H]3C2)c(F)cc2c(=O)c(C(=O)O)cn(C3CC3)c12 [Moxifloxacin]	–	–	–	–	0.062	-0.0739	-0.0241	0.218

Reference: the supplement of paper PMC10627819
